Laboratory results reported in ChEMBL document CHEMBL3045599, “SYNTHESIS, ANOREXIGENIC ACTIVITY AND QSAR OF SUBSTITUTED ARYLOXYPROPANOLAMINES” (Med Chem Res, 2004).
Active and inactive are the calls of the source. The calls are words filed in the database; no cut-off is given here.

What was measured:
Mus musculus [1] = assay: Effect on CNS in Mus musculus Swiss (mouse) assessed as reversal of resperine-induced ptosis at 75 umol/kg, ip; format: ADME, organism-based, Central nervous system; conditions: in vivo
Mus musculus [2] = assay: Antidepressant activity in Mus musculus Swiss (mouse) at 75 umol/kg, ip; format: functional, organism-based
Mus musculus [3] = assay: Anorexigenic activity in Mus musculus Swiss (mouse) at 75 umol/kg, ip measured for 15 min relative to control; format: functional
Mus musculus [4] = assay: Effect on CNS in Mus musculus Swiss (mouse) assessed as reversal of resperine-induced sedation at 75 umol/kg, ip; format: ADME, organism-based, Central nervous system; conditions: in vivo
Mus musculus [5] = assay: Effect on CNS in Mus musculus Swiss (mouse) assessed as gross behavioural effects at 75 umol/kg, ip; format: ADME, organism-based, Central nervous system; conditions: in vivo

Row | Compound | Activity (Mus musculus [1]) | Activity (Mus musculus [2]) | Activity (Mus musculus [3]) [%] | Activity (Mus musculus [4]) | Activity (Mus musculus [5])
1 | CC(=O)Nc1ccc(OCC(O)CN(C)CCC(Oc2ccc(C(F)(F)F)cc2)c2ccccc2)cc1 (stereo not drawn) | Non-toxic | inactive | 60 | Non-toxic | Non-toxic
2 | CN(CCC(Oc1ccc(C(F)(F)F)cc1)c1ccccc1)CC(O)COc1cccc(C(F)(F)F)c1 (stereo not drawn) | Non-toxic | inactive | 32 | Non-toxic | Non-toxic
3 | Cc1ccccc1OCC(O)CN(C)CCC(Oc1ccc(C(F)(F)F)cc1)c1ccccc1 (stereo not drawn) | Non-toxic | inactive | 60 | Non-toxic | Non-toxic
4 | CN(CCC(Oc1ccc(C(F)(F)F)cc1)c1ccccc1)CC(O)COc1ccc(Br)cc1 (stereo not drawn) | Non-toxic | inactive | 60 | Non-toxic | Non-toxic
5 | CCC(=O)c1ccc(OCC(O)CN(C)CCC(Oc2ccc(C(F)(F)F)cc2)c2ccccc2)cc1 (stereo not drawn) | Non-toxic | inactive | 36 | Non-toxic | Non-toxic
6 | COc1ccccc1OCC(O)CN(C)CCC(Oc1ccc(C(F)(F)F)cc1)c1ccccc1 (stereo not drawn) | Non-toxic | inactive | 56 | Non-toxic | Non-toxic
7 | CN(CCC(Oc1ccc(C(F)(F)F)cc1)c1ccccc1)CC(O)COc1ccc(Cl)cc1 (stereo not drawn) | Non-toxic | inactive | 28 | Non-toxic | Non-toxic
8 | CN(CCC(Oc1ccc(C(F)(F)F)cc1)c1ccccc1)CC(O)COc1ccc(C(F)(F)F)cc1 (stereo not drawn) | Non-toxic | inactive | 32 | Non-toxic | Non-toxic
9 | CNCCC(Oc1ccc(C(F)(F)F)cc1)c1ccccc1 (stereo not drawn) [FLUOXETINE] | 100% | – | 72 | 100% | –
10 | CC(=O)c1ccc(OCC(O)CN(C)CCC(Oc2ccc(C(F)(F)F)cc2)c2ccccc2)cc1 (stereo not drawn) | Non-toxic | inactive | 32 | Non-toxic | Non-toxic
11 | CN(CCC(Oc1ccc(C(F)(F)F)cc1)c1ccccc1)CC(O)COc1ccc(C=O)cc1 (stereo not drawn) | Non-toxic | inactive | 40 | Non-toxic | Non-toxic
12 | CN(CCC(Oc1ccc(C(F)(F)F)cc1)c1ccccc1)CC(O)COc1ccccc1 (stereo not drawn) | Non-toxic | inactive | 52 | Non-toxic | Non-toxic
13 | CN(CCC(Oc1ccc(C(F)(F)F)cc1)c1ccccc1)CC(O)COc1ccc2ccccc2c1 (stereo not drawn) | Non-toxic | inactive | 40 | Non-toxic | Non-toxic
14 | CCNc1ccc(OCC(O)CN(C)CCC(Oc2ccc(C(F)(F)F)cc2)c2ccccc2)cc1 (stereo not drawn) | Non-toxic | inactive | 60 | Non-toxic | Non-toxic
15 | COc1ccc(OCC(O)CN(C)CCC(Oc2ccc(C(F)(F)F)cc2)c2ccccc2)cc1 (stereo not drawn) | Non-toxic | inactive | 52 | Non-toxic | Non-toxic
16 | CN(CCC(Oc1ccc(C(F)(F)F)cc1)c1ccccc1)CC(O)COc1ccc(C#N)cc1 (stereo not drawn) | Non-toxic | Active | 72 | Non-toxic | Non-toxic
